# Measured values reported in US20110082212A1, “MULTI-S[…] ANDROGEN RECEPTOR MODULATORS AND METHODS OF USE THEREOF” (priority 2002, published 2011).
# Where “and” joins values, the source holds several entries; their conditions need not be identical. Identical values can stand only once.
# Assays:
# [1] = test system: intact male rats (ventral prostate, seminal vesicles, levator ani muscle); assay: Pharmacologic activity of TP and compound 7 in intact male rats (organ weights); assay type: in vivo; settings: 0.5 mg/day, 14 days
# Description: (§1) Forty-five male SD rats, weighing approximately 200 g, were randomly divided into nine groups with five rats per group. One day before treatment, groups 1 through 8 were castrated via a scrotal incision under anesthesia. Group 9 served as an intact vehicle control. Compound 7 was dissolved in a vehicle containing DMSO (5%, v/v) in PEG 300. Groups 1 through 7 received daily subcutaneous injections of compound 7 at a dose rate of 0.05, 0.1, 0.3, 0.5, 0.75, 1, and 3 mg/day, respectively. Groups 8 and 9 received vehicle. […] This dose rate was chosen based on the results from the aforementioned study in castrated rats. Rats were sacrificed after 14 days treatment. Serum samples were collected and stored at −80° C. The ventral prostate, seminal vesicles, and levator ani muscle were removed, cleared of extraneous tissue, and weighed. All organ weights were normalized to body weight and compared. The weights of the prostate and seminal vesicles were used to evaluate androgenic activity, while the levator ani muscle weight was used as a measurement of anabolic activity.
# [2] = target: T1, androgen receptor (Rattus norvegicus, UniProt P15207); assay: Androgen receptor binding affinities; settings: for RBA: relative binding affinity, androgen receptor
# T1 construct: from tissue; host or cells: Rat ventral prostate cytosol
# T1 sequence (P15207 1-902): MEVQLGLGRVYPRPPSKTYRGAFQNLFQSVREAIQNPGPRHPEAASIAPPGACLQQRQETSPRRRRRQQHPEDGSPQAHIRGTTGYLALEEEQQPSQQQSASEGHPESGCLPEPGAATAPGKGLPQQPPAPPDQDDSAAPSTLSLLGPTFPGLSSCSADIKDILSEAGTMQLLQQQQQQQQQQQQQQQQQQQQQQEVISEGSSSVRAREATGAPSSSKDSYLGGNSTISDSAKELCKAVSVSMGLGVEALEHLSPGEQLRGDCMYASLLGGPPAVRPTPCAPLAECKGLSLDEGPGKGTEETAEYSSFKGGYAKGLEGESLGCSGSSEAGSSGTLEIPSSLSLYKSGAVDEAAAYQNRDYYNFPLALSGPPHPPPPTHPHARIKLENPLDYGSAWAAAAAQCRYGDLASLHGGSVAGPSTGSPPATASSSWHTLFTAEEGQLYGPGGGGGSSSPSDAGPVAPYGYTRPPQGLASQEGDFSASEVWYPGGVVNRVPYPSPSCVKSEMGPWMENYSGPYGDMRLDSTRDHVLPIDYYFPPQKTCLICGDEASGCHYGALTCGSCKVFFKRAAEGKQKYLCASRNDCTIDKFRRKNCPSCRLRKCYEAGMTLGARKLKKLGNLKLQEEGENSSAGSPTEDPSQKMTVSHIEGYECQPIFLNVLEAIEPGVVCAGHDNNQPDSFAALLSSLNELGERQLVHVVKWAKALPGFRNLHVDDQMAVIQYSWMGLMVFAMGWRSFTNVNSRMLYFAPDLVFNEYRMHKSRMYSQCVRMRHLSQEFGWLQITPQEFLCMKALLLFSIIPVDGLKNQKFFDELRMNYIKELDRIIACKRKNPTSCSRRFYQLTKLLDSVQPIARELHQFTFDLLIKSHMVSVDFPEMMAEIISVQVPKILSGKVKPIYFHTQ
# [3] = test system: castrated male rats (prostate, seminal vesicles, levator ani muscle); assay: Androgenic and anabolic activity of compounds 1 and 2 in castrated rat model (organ weights); assay type: in vivo, Sprague-Dawley rats; settings: 14 days; for Seminal Vesicles weight: intact 101 ± 26.8, castrated 8.1 ± 1.8; for Levator Ani Muscle weight: intact 102 ± 8.1, castrated 40.9 ± 9.4; for Prostate weight: intact 100 ± 14.3, castrated 6.2 ± 2.5
# Text: Intact Controls (not castrated, untreated) and Castrated Controls (castrated, untreated) were used as the control groups.
# [4] = test system: serum testosterone; assay: Serum testosterone concentrations in intact male rats (EIA); assay type: in vivo; settings: 0.5 mg/day, 14 days, individual animals (n=5/group), detection limit 0.04 ng/mL, intact rats 4.47±1.66
# Description: as §1
# [5] = test system: LH and FSH levels; assay: Serum LH and FSH levels in castrated rats treated with compound 7 (RIA); assay type: in vivo, SD rats
# Description: as §1
# [6] = test system: castrated male rats (ventral prostate, seminal vesicles, levator ani muscle); assay: Androgenic and anabolic activity of compound 7 in castrated male rats (organ weights, dose response); assay type: in vivo, SD rats; settings: 14 days
# Description: as §1
# [7] = daily s.c., nonlinear regression of dose-response
smiles,measurement,setting,value
"CCC(=O)O[C@H]1CC[C@H]2[C@@H]3CCC4=CC(=O)CC[C@]4(C)[C@H]3CC[C@]12C [TP, testosterone propionate, reference compound]","effect on growth of prostate, seminal vesicles and levator ani muscle",[1],stimulated growth in all three organs
C[C@](O)(COc1ccc(F)c(F)c1)C(=O)Nc1ccc([N+](=O)[O-])c(C(F)(F)F)c1 [Compound 1],RBA,[2],17.6%
same,levator ani muscle weight compared with intact animals,[3]; 1 mg/d,maintain the levator ani muscle weight of castrated animals in the same level as that of intact animals
same,Seminal Vesicles weight,[3]; 1 mg/day via osmotic pump,30.9 ± 5.7
same,Levator Ani Muscle weight,[3]; 1 mg/day via osmotic pump,122.5 ± 10.4
same,Prostate weight,"[3]; 1 mg/day via osmotic pump, normalized to body weight",40.3 ± 10.0
same,Prostate weight,"[3]; 1 mg/day, daily injection",33.1 ± 8.5
same,Seminal Vesicles weight,"[3]; 1 mg/day, daily injection",23.6 ± 8.8
same,Levator Ani Muscle weight,"[3]; 1 mg/day, daily injection",112.8 ± 9.4
C[C@](O)(COc1ccc(Cl)c(F)c1)C(=O)Nc1ccc([N+](=O)[O-])c(C(F)(F)F)c1 [Compound 7],serum testosterone concentration,[4],< 0.04 ng/mL and 0.11 ng/mL and 0.46 ng/mL
same,Ki,[2],4.9 ± 0.3 nM
same,RBA,[2],9.1%
same,effect on levator ani muscle weight,[1],maintained levator ani muscle weight
same,effect on size of prostate and seminal vesicles,[1],reduced the size of the prostate and seminal vesicles
same,lowest dose reversing FSH levels back to physiologic levels,[5],0.5 mg/day
same,lowest dose reversing LH levels back to physiologic levels,[5],0.3 mg/day
same,FSH,"[5]; 0.1 mg/day, intact control 11.2 ± 2.0, castrated control 63.4 ± 5.0",53.0 ± 5.1 ^I ng/mL
same,LH,"[5]; 0.1 mg/day, intact control <0.2, castrated control 8.4 ± 2.5",3.6 ± 0.8 ^I ng/mL
same,FSH,[5]; 0.3 mg/day,26.6 ± 8.9 ^I ng/mL
same,LH,[5]; 0.3 mg/day,<0.2 ^C ng/mL
same,FSH,[5]; 0.5 mg/day,12.4 ± 1.1 ^C ng/mL
same,LH,[5]; 0.5 mg/day,<0.2 ^C ng/mL
same,FSH,[5]; 0.75 mg/day,12.8 ± 1.6 ^C ng/mL
same,LH,[5]; 0.75 mg/day,<0.2 ^C ng/mL
same,"organ weights (ventral prostate, seminal vesicles, levator ani muscle) restored relative to intact controls",[6]; 3 mg/day s.c.,up to 130%
same,ED50 in levator ani muscle,[6]; [7],0.17 ± 0.04 mg/day
same,ED50 in prostate,[6]; [7],0.77 ± 0.06 mg/day
same,ED50 in seminal vesicle,[6]; [7],0.88 ± 0.14 mg/day
C[C@](O)(COc1c(F)c(F)c(F)c(F)c1F)C(=O)Nc1ccc([N+](=O)[O-])c(C(F)(F)F)c1 [Compound 2],RBA,[2],13.3%
same,Prostate weight,"[3]; 1 mg/day, daily injection",7.2 ± 1.4
same,Seminal Vesicles weight,"[3]; 1 mg/day, daily injection",7.2 ± 0.9
same,Levator Ani Muscle weight,"[3]; 1 mg/day, daily injection",55.83 ± 2.84
C[C@](O)(COc1ccccc1F)C(=O)Nc1ccc([N+](=O)[O-])c(C(F)(F)F)c1 [Compound 10],Ki,[2],3.4 ± 0.34 nM
same,RBA,[2],5.9%
C[C@](O)(COc1ccc(F)c(F)c1F)C(=O)Nc1ccc([N+](=O)[O-])c(C(F)(F)F)c1 [Compound 3],Ki,[2],11.3 ± 1.1 nM
same,RBA,[2],3.1%
C[C@](O)(COc1cc(F)cc(F)c1F)C(=O)Nc1ccc([N+](=O)[O-])c(C(F)(F)F)c1 [Compound 6],Ki,[2],9.1 ± 0.6 nM
same,RBA,[2],3.4%
C[C@](O)(COc1ccc(F)cc1F)C(=O)Nc1ccc([N+](=O)[O-])c(C(F)(F)F)c1 [Compound 5],Ki,[2],3.2 ± 0.3 nM
same,RBA,[2],10.9%
C[C@](O)(COc1ccc(Cl)c(Cl)c1)C(=O)Nc1ccc([N+](=O)[O-])c(C(F)(F)F)c1 [Compound 9],Ki,[2],1 ± 0.09 nM
same,RBA,[2],20.2%
C[C@](O)(COc1c(F)cc(F)cc1F)C(=O)Nc1ccc([N+](=O)[O-])c(C(F)(F)F)c1 [Compound 11],Ki,[2],10.3 ± 2 nM
C[C@](O)(COc1ccc(F)c(Cl)c1)C(=O)Nc1ccc([N+](=O)[O-])c(C(F)(F)F)c1 [Compound 8],Ki,[2],10.3 ± 2 nM
same,RBA,[2],4.3%
